From patent US20090048112A1, “Novel Herbicides” (SYNGENTA LIMITED, priority 2005, published 2009)

Experiments:
[1] = test system: Monocotyledonous and dicotyledonous test plants; assay: Example B1: herbicidal action prior to emergence (pre-emergence), 500 g/ha; assay type: in vivo; settings: 13 days after application, 0 = no damage, 100 = plants completely dead; for ALOMY herbicidal effect (visual assessment, percentage scale): Alopecurus myosuroides (slender foxtail); for AMARE herbicidal effect (visual assessment, percentage scale): Amaranthus retroflexus (redroot pigweed); for ECHCG herbicidal effect (visual assessment, percentage scale): Echinochloa crus-galli (barnyard grass); for STEME herbicidal effect (visual assessment, percentage scale): Stellaria media (chickweed)
Procedure: (§1) Monocotyledonous and dicotyledonous test plants were sown in seed trays in standard compost. The trays were watered twice daily or as required. The chemicals were applied by track sprayer at the soil surface. The application was carried out with an aqueous suspension of the test substances, prepared as a formulation of 50% acetone in water with 0.5% Tween 20™ (CAS RN 9005-64-5), to achieve a field equivalent of 1000 l/ha. The application rate of the test substances was 500 g/ha. A visual assessment of the herbicidal effect was made at 13 days after application. The following percentage scale was used for assessment: 0, 5, 10, 20, 30, 40, 50, 60, 70, 80, 90, 95, 100 (where 0 is no damage to plants and 100 is plants are completely dead).

[2] = test system: Alopecurus myosuroides (slender foxtail); assay: Example B2: herbicidal action post emergence, 500 g/ha; assay type: in vivo; settings: applied to the foliage, 13 days after application, 0 is no damage to plants, 100 is plants completely dead
Procedure: as §1, with “standard compost and were grown for eight days.” for “standard compost.”, “sprayer to” for “sprayer at”, “the foliage.” for “the soil surface.”, “(where O” for “(where 0”

[3] = test system: Amaranthus retroflexus (redroot pigweed); assay: as above; assay type: in vivo; settings: applied to the foliage, 13 days after application, 0 is no damage to plants, 100 is plants completely dead
Procedure: as §1, with “standard compost and were grown for eight days.” for “standard compost.”, “sprayer to” for “sprayer at”, “the foliage.” for “the soil surface.”, “(where O” for “(where 0”

[4] = test system: Echinochloa crus-galli (barnyard grass); assay: as above; assay type: in vivo; settings: applied to the foliage, 13 days after application, 0 is no damage to plants, 100 is plants completely dead
Procedure: as §1, with “standard compost and were grown for eight days.” for “standard compost.”, “sprayer to” for “sprayer at”, “the foliage.” for “the soil surface.”, “(where O” for “(where 0”

[5] = test system: Stellaria media (chickweed); assay: as above; assay type: in vivo; settings: applied to the foliage, 13 days after application, 0 is no damage to plants, 100 is plants completely dead
Procedure: as §1, with “standard compost and were grown for eight days.” for “standard compost.”, “sprayer to” for “sprayer at”, “the foliage.” for “the soil surface.”, “(where O” for “(where 0”

[6] = test system: Monocotyledonous and dicotyledonous test plants; assay: Example B3: herbicidal action prior to emergence (pre-emergence), 96-cell seed trays, 1000 g/ha; assay type: in vivo; design: key: 0 is no damage to plant; 5 is total damage to plant; settings: 9 days after application
Procedure: Monocotyledonous and dicotyledonous test plants were sown in sterilised standard soil in seed trays each with 96 cells. The seed trays were stored under controlled conditions in a climatic chamber for one day (cultivation at 23° C. during the day and 17° C. at night; 13 hours of light; 50-60% humidity). The chemicals were applied to the soil surface. The application was carried out with an aqueous suspension of the test substances, prepared as a formulation in water with 10% dimethyl sulfoxide (CAS RN 67-68-5), to achieve a field equivalent of 1000 l/ha. The application rate of the test substances was 1000 g/ha. The plants were grown on in the climatic chamber for 9 days (cultivation at 24° C. during the day and 19° C. at night; 13 hours of light; 50-60% humidity). A visual assessment of the herbicidal effect was made at 9 days after application. The following scale was used for assessment: 0, 1, 2, 3, 4 and 5 (where 0 is no damage to plant and 5 is total damage to plant).

| Structure (SMILES) | melting point [°C] | ALOMY herbicidal effect (visual assessment, percentage scale) [1] [%] | AMARE herbicidal effect (visual assessment, percentage scale) [1] [%] | ECHCG herbicidal effect (visual assessment, percentage scale) [1] [%] | STEME herbicidal effect (visual assessment, percentage scale) [1] [%] | ALOMY, visual assessment of the herbicidal effect [2] [%] | AMARE, visual assessment of the herbicidal effect [3] [%] | ECHCG, visual assessment of the herbicidal effect [4] [%] | STEME, visual assessment of the herbicidal effect [5] [%] | AGSTE herbicidal effect (visual assessment, scale 0-5) ([6]; Agrostis tenius (Colonial bentgrass)) | AMARE herbicidal effect (visual assessment, scale 0-5) ([6]; Amaranthus retroflexus (redroot pigweed)) | DIGSA herbicidal effect (visual assessment, scale 0-5) ([6]; Digitaria sanguinalis (hairy finger-grass)) | POATR herbicidal effect (visual assessment, scale 0-5) ([6]; Poa trivialis (rough blue grass)) | SETIT herbicidal effect (visual assessment, scale 0-5) ([6]; Setaria italica (foxtail millet)) |
| --- | --- | --- | --- | --- | --- | --- | --- | --- | --- | --- | --- | --- | --- | --- |
| Cn1nc(C(F)(F)F)c(C(Cl)S(=O)(=O)c2ncc(Br)s2)c1Cl (stereo not drawn) [Compound No. 1.030, 5-bromo-2-[chloro-(5-chloro-1-methyl-3-trifluoromethyl-1H-pyrazol-4-yl)-methanesulfonyl]-thiazole] | 78 to 79.5 | – | – | – | – | – | – | – | – | – | – | – | – | – |
| CCOc1c(CS(=O)(=O)c2ncc(Br)s2)c(C(F)(F)F)nn1C [1.023] | – | 50 | 100 | 90 | 30 | 70 | 80 | 80 | 20 | – | – | – | – | – |
| Cn1nc(C(F)(F)F)c(CSc2ncc(Br)s2)c1OCC(F)(F)F [Compound No. 1.001, 5-bromo-2-[1-methyl-5-(2,2,2-trifluoroethoxy)-3-trifluoromethyl-1H-pyrazol-4-ylmethylsulfanyl]-thiazole] | – | 90 | 90 | 95 | 60 | 80 | 80 | 60 | 80 | – | – | – | – | – |
| Cn1nc(C(F)(F)F)c(C[S+]([O-])c2ncc(Cl)s2)c1OCC(F)(F)F (racemic) [1.014] | – | 100 | 100 | 95 | 95 | 70 | 70 | 60 | 80 | – | – | – | – | – |
| Cn1nc(C(F)(F)F)c(C[S+]([O-])c2ncc(Cl)s2)c1Cl (racemic) [1.017] | – | 95 | 95 | 95 | 95 | 70 | 70 | 60 | 70 | – | – | – | – | – |
| Cn1nc(C(F)(F)F)c(CS(=O)(=O)c2ncc(Br)s2)c1OCC(F)F [1.026] | – | 60 | 90 | 95 | 0 | 70 | 60 | 70 | 0 | – | – | – | – | – |
| Cn1nc(C(F)(F)F)c(C[S+]([O-])c2ncc(Br)s2)c1OCC(F)F (racemic) [1.025] | – | 95 | 100 | 95 | 90 | 70 | 80 | 80 | 90 | – | – | – | – | – |
| Cn1nc(C(F)(F)F)c(CSc2ncc(Br)s2)c1Cl [Compound No. 1.004, 5-bromo-2-(5-chloro-1-methyl-3-trifluoromethyl-1H-pyrazol-4-ylmethylsulfanyl)-thiazole] | – | 95 | 95 | 95 | 60 | 80 | 70 | 90 | 60 | – | – | – | – | – |
| Cn1nc(C(F)(F)F)c(CSc2ncc(Cl)s2)c1OC(F)F [Compound No. 1.056] | – | 90 | 95 | 95 | 90 | 95 | 70 | 70 | 80 | – | – | – | – | – |
| Cn1nc(C(F)(F)F)c(CSc2ncc(C(N)=O)s2)c1OCC(F)(F)F [1.121, 2-[1-methyl-5-(2,2,2-trifluoro-ethoxy)-3-trifluoromethyl-1H-pyrazol-4-ylmethylsulfanyl]-thiazole-5-carboxylic acid amide] | 118 to 120 | – | – | – | – | – | – | – | – | – | – | – | – | – |
| Cn1nc(C(F)(F)F)c(C(F)(F)S(=O)(=O)c2ncc(Br)s2)c1Cl [Compound No. 1.033, 5-bromo-2-[(5-chloro-1-methyl-3-trifluoromethyl-1H-pyrazol-4-yl)-difluoro-methanesulfonyl]-thiazole] | 186 to 188 | – | – | – | – | – | – | – | – | – | – | – | – | – |
| Cn1nc(C(F)(F)F)c(C[S+]([O-])c2ncc(Cl)s2)c1OC(F)F (racemic) [1.057] | – | 90 | 95 | 95 | 80 | 90 | 100 | 80 | 90 | – | – | – | – | – |
| CC(c1c(C(F)(F)F)nn(C)c1OCC(F)(F)F)S(=O)(=O)c1ncc(Cl)s1 (racemic) [1.096] | – | 95 | 95 | 95 | 95 | 90 | 80 | 80 | 70 | 5 | 5 | 5 | 5 | 5 |
| Cn1nc(C(F)(F)F)c(C[S+]([O-])c2ncc(Br)s2)c1Cl (racemic) [1.005] | – | 95 | 100 | 95 | 60 | 80 | 80 | 80 | 70 | – | – | – | – | – |
